# Measurements from ChEMBL document CHEMBL5303768, “Data for DCP probe TP-060” (2023).
# Active and inactive are the calls of the source. The calls are words filed in the database; no cut-off is given here.
# Legend:
# [1] = biological target: T1, Ceramide glucosyltransferase (Homo sapiens, UniProt Q16739); assay: Cellular GlcCer reduction; format: functional, tissue-based, fibroblast
# T1 sequence (Q16739 whole entry): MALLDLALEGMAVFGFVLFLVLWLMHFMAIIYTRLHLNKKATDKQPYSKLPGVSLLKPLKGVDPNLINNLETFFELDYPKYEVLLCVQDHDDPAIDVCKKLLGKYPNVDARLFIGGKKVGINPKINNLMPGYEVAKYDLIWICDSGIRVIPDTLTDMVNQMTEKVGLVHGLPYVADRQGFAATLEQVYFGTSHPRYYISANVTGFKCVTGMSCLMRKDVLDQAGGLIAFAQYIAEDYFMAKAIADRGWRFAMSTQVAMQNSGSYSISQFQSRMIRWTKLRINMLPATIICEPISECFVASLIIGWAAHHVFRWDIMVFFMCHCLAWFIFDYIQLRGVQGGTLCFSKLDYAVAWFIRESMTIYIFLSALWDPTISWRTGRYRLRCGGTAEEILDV
# [2] = biological target: 3',5'-cyclic-AMP phosphodiesterase 4D (Homo sapiens, UniProt Q08499); assay: (§1) Safety47 Scan (DiscoverX - Eurofins)
# [3] = biological target: 5-hydroxytryptamine receptor 1A (Homo sapiens, UniProt P08908); assay: as §1
# [4] = biological target: 5-hydroxytryptamine receptor 1B (Homo sapiens, UniProt P28222); assay: as §1
# [5] = biological target: 5-hydroxytryptamine receptor 2A (Homo sapiens, UniProt P28223); assay: as §1
# [6] = biological target: 5-hydroxytryptamine receptor 2B (Homo sapiens, UniProt P41595); assay: as §1
# [7] = biological target: 5-hydroxytryptamine receptor 3A (Homo sapiens, UniProt P46098); assay: as §1
# Acetylcholinesterase = Acetylcholinesterase (Homo sapiens, UniProt P22303); assay: as §1
# Adenosine receptor A2a = Adenosine receptor A2a (Homo sapiens, UniProt P29274); assay: as §1
# [8] = biological target: Alpha-1A adrenergic receptor (Homo sapiens, UniProt P35348); assay: as §1
# [9] = biological target: Alpha-2A adrenergic receptor (Homo sapiens, UniProt P08913); assay: as §1
# [10] = biological target: Amine oxidase [flavin-containing] A (Rattus norvegicus, UniProt P21396); assay: as §1
# Androgen receptor = Androgen receptor (Homo sapiens, UniProt P10275); assay: as §1
# [11] = biological target: Beta-1 adrenergic receptor (Homo sapiens, UniProt P08588); assay: as §1
# [12] = biological target: Beta-2 adrenergic receptor (Homo sapiens, UniProt P07550); assay: as §1
# Cannabinoid receptor 1 = Cannabinoid receptor 1 (Homo sapiens, UniProt P21554); assay: as §1
# Cannabinoid receptor 2 = Cannabinoid receptor 2 (Homo sapiens, UniProt P34972); assay: as §1
# [13] = biological target: Cholecystokinin receptor type A (Homo sapiens, UniProt P32238); assay: as §1
# D(1A) dopamine receptor = D(1A) dopamine receptor (Homo sapiens, UniProt P21728); assay: as §1
# D(2) dopamine receptor = D(2) dopamine receptor (Homo sapiens, UniProt P14416); assay: as §1
# [14] = biological target: Delta-type opioid receptor (Homo sapiens, UniProt P41143); assay: as §1
# Endothelin-1 receptor = Endothelin-1 receptor (Homo sapiens, UniProt P25101); assay: as §1
# Glucocorticoid receptor = Glucocorticoid receptor (Homo sapiens, UniProt P04150); assay: as §1
# Histamine H1 receptor = Histamine H1 receptor (Homo sapiens, UniProt P35367); assay: as §1
# Histamine H2 receptor = Histamine H2 receptor (Homo sapiens, UniProt P25021); assay: as §1
# Insulin receptor = Insulin receptor (Homo sapiens, UniProt P06213); assay: as §1
# [15] = biological target: Kappa-type opioid receptor (Homo sapiens, UniProt P41145); assay: as §1
# Mu-type opioid receptor = Mu-type opioid receptor (Homo sapiens, UniProt P35372); assay: as §1
# [16] = biological target: Muscarinic acetylcholine receptor M1 (Homo sapiens, UniProt P11229); assay: as §1
# [17] = biological target: Muscarinic acetylcholine receptor M2 (Homo sapiens, UniProt P08172); assay: as §1
# [18] = biological target: Muscarinic acetylcholine receptor M3 (Homo sapiens, UniProt P20309); assay: as §1
# [19] = biological target: Prostaglandin G/H synthase 1 (Homo sapiens, UniProt P23219); assay: as §1
# [20] = biological target: Prostaglandin G/H synthase 2 (Homo sapiens, UniProt P35354); assay: as §1
# [21] = biological target: Rho-associated protein kinase 1 (Homo sapiens, UniProt Q13464); assay: as §1
# [22] = biological target: Sodium channel protein type 5 subunit alpha (Homo sapiens, UniProt Q14524); assay: as §1
# [23] = biological target: Sodium-dependent dopamine transporter (Homo sapiens, UniProt Q01959); assay: as §1
# [24] = biological target: Sodium-dependent noradrenaline transporter (Homo sapiens, UniProt P23975); assay: as §1
# [25] = biological target: Tyrosine-protein kinase Lck (Homo sapiens, UniProt P06239); assay: as §1
# [26] = biological target: Vascular endothelial growth factor receptor 2 (Homo sapiens, UniProt P35968); assay: as §1
# Vasopressin V1a receptor = Vasopressin V1a receptor (Homo sapiens, UniProt P37288); assay: as §1
# [27] = biological target: Voltage-gated inwardly rectifying potassium channel KCNH2 (Homo sapiens, UniProt Q12809); assay: as §1
# [28] = biological target: cGMP-inhibited 3',5'-cyclic phosphodiesterase 3A (Homo sapiens, UniProt Q14432); assay: as §1
# [29] = as §1; set-up: species or system Rattus norvegicus
# [30] = biological target: Voltage-dependent L-type calcium channel subunit alpha-1C (Homo sapiens, UniProt Q13936); assay: as §1; set-up: species or system Rattus norvegicus; conditions: target entry is the homologue from another species
# [31] = biological target: Neuronal acetylcholine receptor; alpha4/beta2 (Homo sapiens, UniProt P17787+P43681); assay: as §1; format: protein-complex assay
# [32] = biological target: Voltage-gated potassium channel, IKs; KCNQ1(Kv7.1)/KCNE1(MinK) (Homo sapiens, UniProt P15382+P51787); assay: as §1; format: protein-complex assay
# [33] = biological target: Glutamate NMDA receptor; GRIN1/GRIN2B (Homo sapiens, UniProt Q05586+Q13224); assay: as §1; format: protein-complex assay, Rattus norvegicus; conditions: target entry is the homologue from another species
# [34] = biological target: T1, Ceramide glucosyltransferase; assay: Human GCS enzymatic assay; format: functional
# [35] = biological target: Ceramide glucosyltransferase (Mus musculus, UniProt O88693); assay: Mouse GCS enzymatic assay; format: functional
# Chain of 5-hydroxytryptamine receptor 2B (P41595 whole entry): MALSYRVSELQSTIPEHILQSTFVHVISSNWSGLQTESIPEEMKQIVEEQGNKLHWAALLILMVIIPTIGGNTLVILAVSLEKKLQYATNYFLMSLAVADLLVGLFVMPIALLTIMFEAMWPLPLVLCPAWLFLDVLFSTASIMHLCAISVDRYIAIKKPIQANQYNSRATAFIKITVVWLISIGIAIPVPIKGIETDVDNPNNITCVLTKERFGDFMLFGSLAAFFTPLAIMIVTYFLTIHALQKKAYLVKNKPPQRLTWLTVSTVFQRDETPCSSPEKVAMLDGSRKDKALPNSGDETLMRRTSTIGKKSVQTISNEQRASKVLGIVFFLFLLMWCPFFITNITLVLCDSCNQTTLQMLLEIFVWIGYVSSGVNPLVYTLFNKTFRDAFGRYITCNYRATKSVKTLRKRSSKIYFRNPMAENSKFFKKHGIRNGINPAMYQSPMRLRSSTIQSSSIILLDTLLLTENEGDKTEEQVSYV
# Chain of Muscarinic acetylcholine receptor M1 (P11229 whole entry): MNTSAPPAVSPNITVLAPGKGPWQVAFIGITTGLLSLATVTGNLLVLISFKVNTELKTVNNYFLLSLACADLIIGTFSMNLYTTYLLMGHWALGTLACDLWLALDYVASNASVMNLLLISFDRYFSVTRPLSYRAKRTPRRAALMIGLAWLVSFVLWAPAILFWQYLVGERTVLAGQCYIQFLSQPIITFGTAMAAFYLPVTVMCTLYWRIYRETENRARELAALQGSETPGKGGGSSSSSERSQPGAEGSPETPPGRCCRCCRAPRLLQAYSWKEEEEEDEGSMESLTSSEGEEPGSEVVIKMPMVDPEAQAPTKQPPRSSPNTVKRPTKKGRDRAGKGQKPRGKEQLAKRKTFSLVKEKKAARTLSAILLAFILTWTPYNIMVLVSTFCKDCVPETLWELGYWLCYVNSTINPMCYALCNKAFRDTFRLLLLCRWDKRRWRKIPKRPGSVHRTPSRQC
# Chain of Adenosine receptor A2a (P29274 whole entry): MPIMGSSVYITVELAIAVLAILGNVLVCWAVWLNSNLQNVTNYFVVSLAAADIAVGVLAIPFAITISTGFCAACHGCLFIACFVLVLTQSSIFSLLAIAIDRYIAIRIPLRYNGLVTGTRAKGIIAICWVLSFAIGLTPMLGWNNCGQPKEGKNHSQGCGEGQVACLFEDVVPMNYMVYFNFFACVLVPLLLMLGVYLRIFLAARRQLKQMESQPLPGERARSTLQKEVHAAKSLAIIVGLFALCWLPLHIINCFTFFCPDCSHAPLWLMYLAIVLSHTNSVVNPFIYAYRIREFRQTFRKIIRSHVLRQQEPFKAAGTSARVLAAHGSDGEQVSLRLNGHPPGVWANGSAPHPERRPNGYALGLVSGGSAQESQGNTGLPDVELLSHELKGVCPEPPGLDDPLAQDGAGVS
# Chain of Muscarinic acetylcholine receptor M3 (P20309 whole entry): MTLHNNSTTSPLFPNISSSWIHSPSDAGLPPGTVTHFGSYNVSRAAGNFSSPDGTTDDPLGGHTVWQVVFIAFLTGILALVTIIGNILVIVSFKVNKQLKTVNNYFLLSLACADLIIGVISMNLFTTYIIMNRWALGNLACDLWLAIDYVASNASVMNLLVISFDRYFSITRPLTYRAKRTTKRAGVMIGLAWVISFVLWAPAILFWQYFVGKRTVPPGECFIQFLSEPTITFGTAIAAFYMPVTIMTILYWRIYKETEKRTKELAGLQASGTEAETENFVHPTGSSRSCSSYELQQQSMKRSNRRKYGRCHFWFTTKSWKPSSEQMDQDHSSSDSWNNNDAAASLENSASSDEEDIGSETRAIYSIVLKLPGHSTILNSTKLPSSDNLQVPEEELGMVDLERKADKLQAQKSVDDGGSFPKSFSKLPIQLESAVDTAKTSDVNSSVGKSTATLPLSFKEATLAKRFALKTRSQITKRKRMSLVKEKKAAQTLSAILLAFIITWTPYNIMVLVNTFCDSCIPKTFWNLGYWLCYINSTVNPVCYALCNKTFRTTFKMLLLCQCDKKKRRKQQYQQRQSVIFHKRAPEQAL
# Chain of Vasopressin V1a receptor (P37288 whole entry): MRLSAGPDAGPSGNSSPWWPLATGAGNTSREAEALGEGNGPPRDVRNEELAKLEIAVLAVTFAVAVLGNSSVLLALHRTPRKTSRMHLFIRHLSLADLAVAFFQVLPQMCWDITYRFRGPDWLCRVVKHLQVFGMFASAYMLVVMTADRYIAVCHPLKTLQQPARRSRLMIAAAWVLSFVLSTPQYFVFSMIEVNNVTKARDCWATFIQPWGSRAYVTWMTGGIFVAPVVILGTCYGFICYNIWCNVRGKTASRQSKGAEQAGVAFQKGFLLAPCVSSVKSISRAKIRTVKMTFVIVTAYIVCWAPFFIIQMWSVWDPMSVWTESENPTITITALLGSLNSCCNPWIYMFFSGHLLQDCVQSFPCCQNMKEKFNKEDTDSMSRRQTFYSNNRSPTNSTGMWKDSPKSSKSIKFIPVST
# Chain of Cannabinoid receptor 1 (P21554 whole entry): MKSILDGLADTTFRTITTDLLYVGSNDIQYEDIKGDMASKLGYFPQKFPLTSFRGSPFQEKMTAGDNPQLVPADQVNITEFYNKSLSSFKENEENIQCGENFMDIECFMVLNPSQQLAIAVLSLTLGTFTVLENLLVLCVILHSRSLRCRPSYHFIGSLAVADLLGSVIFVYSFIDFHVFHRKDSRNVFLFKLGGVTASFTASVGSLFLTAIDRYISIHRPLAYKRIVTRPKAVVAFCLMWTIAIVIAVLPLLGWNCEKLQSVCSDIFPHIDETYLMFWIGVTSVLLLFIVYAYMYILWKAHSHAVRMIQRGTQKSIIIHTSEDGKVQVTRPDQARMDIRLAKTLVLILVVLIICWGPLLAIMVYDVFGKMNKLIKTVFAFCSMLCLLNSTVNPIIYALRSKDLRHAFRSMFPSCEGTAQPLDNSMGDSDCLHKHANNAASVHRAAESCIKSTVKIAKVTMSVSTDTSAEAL
# Chain of Histamine H2 receptor (P25021 whole entry): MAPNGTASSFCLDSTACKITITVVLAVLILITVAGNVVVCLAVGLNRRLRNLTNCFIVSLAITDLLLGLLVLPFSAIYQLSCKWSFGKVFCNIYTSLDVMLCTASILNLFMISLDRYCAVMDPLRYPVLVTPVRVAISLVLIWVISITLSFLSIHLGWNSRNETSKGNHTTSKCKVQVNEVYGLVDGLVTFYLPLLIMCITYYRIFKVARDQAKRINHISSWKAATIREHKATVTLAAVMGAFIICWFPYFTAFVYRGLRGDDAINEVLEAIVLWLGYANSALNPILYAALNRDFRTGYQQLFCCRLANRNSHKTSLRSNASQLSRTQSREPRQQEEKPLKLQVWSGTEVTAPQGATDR
# Chain of Androgen receptor (P10275 whole entry): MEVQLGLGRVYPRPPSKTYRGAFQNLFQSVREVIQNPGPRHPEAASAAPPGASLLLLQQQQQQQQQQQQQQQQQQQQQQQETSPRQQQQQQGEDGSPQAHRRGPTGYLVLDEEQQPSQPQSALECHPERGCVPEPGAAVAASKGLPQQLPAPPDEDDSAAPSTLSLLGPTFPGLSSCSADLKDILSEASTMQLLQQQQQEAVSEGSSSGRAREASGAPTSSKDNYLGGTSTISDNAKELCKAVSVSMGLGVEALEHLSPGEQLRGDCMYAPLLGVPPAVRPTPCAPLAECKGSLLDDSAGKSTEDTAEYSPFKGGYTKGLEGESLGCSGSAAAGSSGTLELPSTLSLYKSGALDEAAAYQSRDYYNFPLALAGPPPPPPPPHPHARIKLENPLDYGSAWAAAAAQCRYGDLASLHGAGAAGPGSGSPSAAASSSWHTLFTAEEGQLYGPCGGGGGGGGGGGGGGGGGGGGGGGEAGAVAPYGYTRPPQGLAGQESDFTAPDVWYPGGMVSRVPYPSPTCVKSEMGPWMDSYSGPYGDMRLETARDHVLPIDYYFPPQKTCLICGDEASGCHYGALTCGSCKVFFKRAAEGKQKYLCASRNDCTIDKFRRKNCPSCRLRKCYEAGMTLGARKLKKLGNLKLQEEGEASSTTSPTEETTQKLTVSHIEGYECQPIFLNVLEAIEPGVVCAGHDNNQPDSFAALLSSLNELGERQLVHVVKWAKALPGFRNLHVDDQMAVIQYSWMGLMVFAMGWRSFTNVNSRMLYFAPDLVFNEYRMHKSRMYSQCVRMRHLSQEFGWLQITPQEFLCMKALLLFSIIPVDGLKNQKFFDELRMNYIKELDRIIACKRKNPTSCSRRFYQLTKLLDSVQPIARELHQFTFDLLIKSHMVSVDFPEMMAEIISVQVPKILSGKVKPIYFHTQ
# Chain of Alpha-2A adrenergic receptor (P08913 whole entry): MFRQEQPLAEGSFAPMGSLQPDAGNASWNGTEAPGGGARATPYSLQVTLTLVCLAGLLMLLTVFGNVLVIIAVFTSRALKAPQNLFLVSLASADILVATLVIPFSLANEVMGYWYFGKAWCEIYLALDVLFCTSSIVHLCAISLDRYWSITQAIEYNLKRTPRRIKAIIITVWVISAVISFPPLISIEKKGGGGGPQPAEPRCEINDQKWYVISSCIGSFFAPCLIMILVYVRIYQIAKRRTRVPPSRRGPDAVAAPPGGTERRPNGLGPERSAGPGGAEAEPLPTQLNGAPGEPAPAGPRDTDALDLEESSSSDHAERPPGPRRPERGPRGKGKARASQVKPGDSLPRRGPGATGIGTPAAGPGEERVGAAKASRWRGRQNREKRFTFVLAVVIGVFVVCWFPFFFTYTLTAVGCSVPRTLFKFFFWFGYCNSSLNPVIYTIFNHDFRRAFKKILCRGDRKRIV
# Chain of 5-hydroxytryptamine receptor 1B (P28222 whole entry): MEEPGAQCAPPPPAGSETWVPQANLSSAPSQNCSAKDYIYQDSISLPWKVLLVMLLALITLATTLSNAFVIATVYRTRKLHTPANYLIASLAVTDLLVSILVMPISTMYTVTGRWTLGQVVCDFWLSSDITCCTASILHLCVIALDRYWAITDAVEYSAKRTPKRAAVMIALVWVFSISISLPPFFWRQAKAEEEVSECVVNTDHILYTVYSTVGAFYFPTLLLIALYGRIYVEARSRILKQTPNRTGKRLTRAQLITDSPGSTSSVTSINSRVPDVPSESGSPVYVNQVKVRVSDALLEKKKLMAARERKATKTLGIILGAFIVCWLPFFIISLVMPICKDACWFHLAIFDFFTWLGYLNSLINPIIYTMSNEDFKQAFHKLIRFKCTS
compound,measurement,setting,value
CC(C)(O)c1ccc(N2Cc3c(ccnc3-c3ccc(F)cc3OCC(F)(F)F)C2=O)cc1,EC50,[1],0.0076 µM (active)
same,IC50,[2],> 10 µM
same,EC50,[3],> 10 µM
same,IC50,[3],> 10 µM
same,EC50,[4],2.8 µM
same,IC50,[4],> 10 µM
same,EC50,[5],> 10 µM
same,IC50,[5],> 10 µM
same,EC50,[6],> 10 µM
same,IC50,[6],> 10 µM
same,EC50,[7],> 10 µM
same,IC50,[7],> 10 µM
same,IC50,Acetylcholinesterase,> 10 µM
same,EC50,Adenosine receptor A2a,> 10 µM
same,IC50,Adenosine receptor A2a,> 10 µM
same,EC50,[8],> 10 µM
same,IC50,[8],> 10 µM
same,EC50,[9],> 10 µM
same,IC50,[9],> 10 µM
same,IC50,[10],> 10 µM
same,EC50,Androgen receptor,> 10 µM
same,IC50,Androgen receptor,> 10 µM
same,EC50,[11],> 10 µM
same,IC50,[11],> 10 µM
same,EC50,[12],> 10 µM
same,IC50,[12],> 10 µM
same,EC50,Cannabinoid receptor 1,> 10 µM
same,IC50,Cannabinoid receptor 1,> 10 µM
same,EC50,Cannabinoid receptor 2,> 10 µM
same,IC50,Cannabinoid receptor 2,> 10 µM
same,EC50,[13],> 10 µM
same,IC50,[13],> 10 µM
same,EC50,D(1A) dopamine receptor,> 10 µM
same,IC50,D(1A) dopamine receptor,> 10 µM
same,EC50,D(2) dopamine receptor,> 10 µM
same,IC50,D(2) dopamine receptor,> 10 µM
same,EC50,[14],> 10 µM
same,IC50,[14],> 10 µM
same,EC50,Endothelin-1 receptor,> 10 µM
same,IC50,Endothelin-1 receptor,> 10 µM
same,EC50,Glucocorticoid receptor,> 10 µM
same,IC50,Glucocorticoid receptor,> 10 µM
same,EC50,Histamine H1 receptor,> 10 µM
same,IC50,Histamine H1 receptor,> 10 µM
same,EC50,Histamine H2 receptor,> 10 µM
same,IC50,Histamine H2 receptor,> 10 µM
same,IC50,Insulin receptor,> 10 µM
same,EC50,[15],> 10 µM
same,IC50,[15],> 10 µM
same,EC50,Mu-type opioid receptor,> 10 µM
same,IC50,Mu-type opioid receptor,> 10 µM
same,EC50,[16],> 10 µM
same,IC50,[16],> 10 µM
same,EC50,[17],> 10 µM
same,IC50,[17],> 10 µM
same,EC50,[18],> 10 µM
same,IC50,[18],> 10 µM
same,IC50,[19],> 10 µM
same,IC50,[20],> 10 µM
same,IC50,[21],> 10 µM
same,IC50,[22],> 10 µM
same,IC50,[23],> 10 µM
same,IC50,[24],> 10 µM
same,IC50,[25],> 10 µM
same,IC50,[26],> 10 µM
same,EC50,Vasopressin V1a receptor,> 10 µM
same,IC50,Vasopressin V1a receptor,> 10 µM
same,IC50,[27],> 10 µM
same,IC50,[28],> 10 µM
same,EC50,[29],> 10 µM
same,IC50,[29],> 10 µM
same,IC50,[30],> 10 µM
same,EC50,[31],> 10 µM
same,IC50,[31],6.5 µM
same,EC50,[32],> 10 µM
same,IC50,[32],> 10 µM
same,EC50,[33],> 10 µM
same,IC50,[33],> 10 µM
COc1cccc(-c2nccc3c2CN(c2ccccc2)C3=O)c1,IC50,[34],> 100 µM (not active)
same,IC50,[35],> 100 µM (not active)
same,EC50,[1],> 10 µM (not active)
